Six compounds from patent US12723063B2, “GIPR-agonist compounds” (Eli Lilly and Company, priority 2019, dated 2026) can be followed below.

Common to all, as to assay: cAMP functional assay (HTRF) in HEK293 cells in presence of 0.1% casein
Common to all, as to assay type: cell-based

Assay [1] has as its target T1, human GLP-1 receptor (GLP-1R) (Homo sapiens, UniProt P43220).
T1 construct: expressed in transfected cells; host or cells: HEK293
The conditions noted are these: HEK293 cells expressing human GLP-1R, geometric mean, read-out: hGLP1R cAMP Rel EC50 nM (SEM, n).

The target of assay [2] is T2, human glucagon receptor (GcgR) (Homo sapiens, UniProt P47871).
T2 construct: expressed in transfected cells; host or cells: HEK293
The conditions noted are these: HEK293 cells expressing human GcgR, geometric mean, read-out: hGcgR cAMP Rel EC50 nM (SEM, n).

Assay [3] has as its target T3, human glucose-dependent insulinotropic peptide receptor (GIPR) (Homo sapiens, UniProt P48546).
T3 construct: expressed in transfected cells; host or cells: HEK293
T3 sequence (P48546 22-466): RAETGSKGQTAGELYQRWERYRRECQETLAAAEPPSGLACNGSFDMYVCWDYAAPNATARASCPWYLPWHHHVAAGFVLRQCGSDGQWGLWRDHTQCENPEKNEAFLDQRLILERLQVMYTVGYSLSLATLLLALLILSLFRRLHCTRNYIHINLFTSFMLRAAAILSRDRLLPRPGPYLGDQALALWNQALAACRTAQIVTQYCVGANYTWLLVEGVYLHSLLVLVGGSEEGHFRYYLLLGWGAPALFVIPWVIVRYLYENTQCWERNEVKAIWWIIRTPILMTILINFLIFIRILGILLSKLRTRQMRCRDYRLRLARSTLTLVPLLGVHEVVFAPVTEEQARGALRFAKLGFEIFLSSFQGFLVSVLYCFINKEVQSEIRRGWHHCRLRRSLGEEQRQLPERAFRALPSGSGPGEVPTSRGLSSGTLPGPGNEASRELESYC
The following applies: HEK293 cells expressing human GIPR, geometric mean, read-out: hGIPR cAMP Rel EC50 nM (SEM, n).

Each structure is given as a SMILES string. *1 amine or outer side, *2 acyl side, *3 side chain or, on linkers, in order; H or OH if unused. Where a SMILES comes first, the peptide text is derived from it. Side-chain parts run from the residue outwards. [ ]: non-standard residue; d: D form. The star is where a group is joined. C20 diacid = O=C(O)CCCCCCCCCCCCCCCCCCC(=O)*; γGlu = O=C(O)[C@H](CCC(=O)[*:2])N[*:1]; αMeF = C[C@](N)(Cc1ccccc1)C(=O)O; 4Pal = N[C@@H](Cc1ccncc1)C(=O)O; αMeL = CC(C)C[C@](C)(N)C(=O)O; AEEA = NCCOCCOCC(=O)O; Aib = CC(C)(N)C(=O)O

T1 sequence (P43220 24-463): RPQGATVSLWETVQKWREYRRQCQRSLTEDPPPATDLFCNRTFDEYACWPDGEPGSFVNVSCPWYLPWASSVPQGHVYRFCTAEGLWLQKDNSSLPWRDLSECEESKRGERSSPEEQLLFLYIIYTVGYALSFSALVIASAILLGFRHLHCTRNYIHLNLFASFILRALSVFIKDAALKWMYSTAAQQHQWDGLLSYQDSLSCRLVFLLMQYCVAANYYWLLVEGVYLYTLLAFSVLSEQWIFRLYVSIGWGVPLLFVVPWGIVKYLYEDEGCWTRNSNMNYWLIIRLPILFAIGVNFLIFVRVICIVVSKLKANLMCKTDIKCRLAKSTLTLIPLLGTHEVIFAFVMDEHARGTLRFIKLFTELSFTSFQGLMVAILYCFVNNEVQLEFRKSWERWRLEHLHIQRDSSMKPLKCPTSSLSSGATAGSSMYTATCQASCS
T2 sequence (P47871 26-477): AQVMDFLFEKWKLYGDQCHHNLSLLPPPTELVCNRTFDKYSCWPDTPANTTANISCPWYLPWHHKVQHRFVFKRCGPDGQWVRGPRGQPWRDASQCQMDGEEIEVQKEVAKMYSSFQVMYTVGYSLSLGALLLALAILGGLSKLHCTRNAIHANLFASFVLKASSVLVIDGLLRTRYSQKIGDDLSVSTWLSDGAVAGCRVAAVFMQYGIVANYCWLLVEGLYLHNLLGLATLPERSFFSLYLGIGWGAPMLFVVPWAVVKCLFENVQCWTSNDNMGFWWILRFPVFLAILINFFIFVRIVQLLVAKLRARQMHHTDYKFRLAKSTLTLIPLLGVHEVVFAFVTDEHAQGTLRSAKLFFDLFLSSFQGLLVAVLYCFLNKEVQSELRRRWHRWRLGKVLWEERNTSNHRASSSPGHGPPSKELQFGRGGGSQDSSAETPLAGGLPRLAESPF

For `CC[C@H](C)[C@H](NC(=O)[C@H](Cc1ccccc1)NC(=O)[C@@H](NC(=O)CNC(=O)[C@H](CCC(=O)O)NC(=O)C(C)(C)NC(=O)[C@@H](N)Cc1ccc(O)cc1)[C@@H](C)O)C(=O)N[C@@H](CO)C(=O)N[C@@H](CC(=O)O)C(=O)N[C@@H](Cc1ccc(O)cc1)C(=O)N[C@@H](CO)C(=O)N[C@H](C(=O)N[C@@](C)(CC(C)C)C(=O)N[C@@H](CC(C)C)C(=O)N[C@@H](CC(=O)O)C(=O)N[C@@H](CCCCN)C(=O)N[C@@H](CCCCNC(=O)COCCOCCNC(=O)COCCOCCNC(=O)CC[C@H](NC(=O)CCCCCCCCCCCCCCCCCCC(=O)O)C(=O)O)C(=O)N[C@@H](Cc1c[nH]cn1)C(=O)N[C@@H](CCC(N)=O)C(=O)NC(C)(C)C(=O)N[C@@H](CCC(=O)O)C(=O)N[C@@H](Cc1ccccc1)C(=O)N[C@H](C(=O)N[C@@H](CCC(=O)O)C(=O)N[C@@H](Cc1ccc(O)cc1)C(=O)N[C@@H](CC(C)C)C(=O)N[C@@H](CC(C)C)C(=O)N[C@@H](CCC(=O)O)C(=O)N[C@@H](C)C(=O)NCC(=O)N1CCC[C@H]1C(=O)N[C@@H](CO)C(=O)N[C@@H](CO)C(=O)NCC(=O)N[C@@H](C)C(=O)N1CCC[C@H]1C(=O)N1CCC[C@H]1C(=O)N1CCC[C@H]1C(=O)N[C@@H](CO)C(N)=O)C(C)C)[C@@H](C)CC` [Example 65] (H-Y[Aib]EGTFISDYSI[αMeL]LDKK([AEEA-AEEA-γGlu-C20 diacid])HQ[Aib]EFVEYLLEAGPSSGAPPPS-NH2), the EC50 was > 5000 nM in assay [1], 850 nM in assay [2] and 0.0346 nM in assay [3].

Take `CC[C@H](C)[C@H](NC(=O)[C@H](Cc1ccccc1)NC(=O)[C@@H](NC(=O)CNC(=O)[C@H](CCC(=O)O)NC(=O)C(C)(C)NC(=O)[C@@H](N)Cc1ccc(O)cc1)[C@@H](C)O)C(=O)N[C@@H](CO)C(=O)N[C@@H](CC(=O)O)C(=O)N[C@@H](Cc1ccc(O)cc1)C(=O)N[C@@H](CO)C(=O)N[C@H](C(=O)N[C@@](C)(CC(C)C)C(=O)N[C@@H](CC(C)C)C(=O)N[C@@H](CC(=O)O)C(=O)N[C@@H](CCCCN)C(=O)N[C@@H](CCCCNC(=O)COCCOCCNC(=O)COCCOCCNC(=O)CC[C@H](NC(=O)CCCCCCCCCCCCCCCCCCC(=O)O)C(=O)O)C(=O)N[C@@H](Cc1c[nH]cn1)C(=O)N[C@@H](CCC(N)=O)C(=O)NC(C)(C)C(=O)N[C@@H](CCC(=O)O)C(=O)N[C@@H](Cc1ccccc1)C(=O)N[C@H](C(=O)N[C@@H](CCC(=O)O)C(=O)N[C@@H](Cc1ccncc1)C(=O)N[C@@H](CC(C)C)C(=O)N[C@@H](CC(C)C)C(=O)N[C@@H](C)C(=O)NCC(=O)NCC(=O)N1CCC[C@H]1C(=O)N[C@@H](CO)C(=O)N[C@@H](CO)C(=O)NCC(=O)N[C@@H](C)C(=O)N1CCC[C@H]1C(=O)N1CCC[C@H]1C(=O)N1CCC[C@H]1C(=O)N[C@@H](CO)C(N)=O)C(C)C)[C@@H](C)CC` [Example 52]: the EC50 in assay [1] was > 5000 nM; in assay [2], 337 nM; in assay [3], 0.0194 nM.

Consider `CC[C@H](C)[C@H](NC(=O)[C@H](Cc1ccccc1)NC(=O)[C@@H](NC(=O)CNC(=O)[C@H](CCC(=O)O)NC(=O)C(C)(C)NC(=O)[C@@H](N)Cc1ccc(O)cc1)[C@@H](C)O)C(=O)N[C@@H](CO)C(=O)N[C@@H](CC(=O)O)C(=O)N[C@@H](Cc1ccc(O)cc1)C(=O)N[C@@H](CO)C(=O)N[C@H](C(=O)N[C@@](C)(CC(C)C)C(=O)N[C@@H](CC(C)C)C(=O)N[C@@H](CC(=O)O)C(=O)N[C@@H](CCCCN)C(=O)N[C@@H](CCCCNC(=O)COCCOCCNC(=O)COCCOCCNC(=O)CC[C@H](NC(=O)CCCCCCCCCCCCCCCCCCC(=O)O)C(=O)O)C(=O)N[C@@H](Cc1c[nH]cn1)C(=O)N[C@@H](CCC(N)=O)C(=O)NC(C)(C)C(=O)N[C@@H](CC(=O)O)C(=O)N[C@@H](Cc1ccccc1)C(=O)N[C@H](C(=O)N[C@@H](CCC(=O)O)C(=O)N[C@@H](Cc1ccncc1)C(=O)N[C@@H](CC(C)C)C(=O)N[C@@H](CC(C)C)C(=O)N[C@@H](CCC(=O)O)C(=O)N[C@@H](CCC(N)=O)C(=O)NCC(=O)N1CCC[C@H]1C(=O)N[C@@H](CO)C(=O)N[C@@H](CO)C(=O)NCC(=O)N[C@@H](C)C(=O)N1CCC[C@H]1C(=O)N1CCC[C@H]1C(=O)N1CCC[C@H]1C(=O)N[C@@H](CO)C(N)=O)C(C)C)[C@@H](C)CC` [Example 46] (H-Y[Aib]EGTFISDYSI[αMeL]LDKK([AEEA-AEEA-γGlu-C20 diacid])HQ[Aib]DFVE[4Pal]LLEQGPSSGAPPPS-NH2), for which the EC50 in assay [1] was > 5000 nM; in assay [2], 863 nM; in assay [3] it was 0.0294 nM.

For the compound `CC[C@H](C)[C@H](NC(=O)[C@H](CO)NC(=O)[C@H](Cc1ccc(O)cc1)NC(=O)[C@H](CC(=O)O)NC(=O)[C@H](CO)NC(=O)[C@@H](NC(=O)[C@](C)(CC(C)C)NC(=O)[C@@H](NC(=O)CNC(=O)[C@H](CCC(=O)O)NC(=O)C(C)(C)NC(=O)[C@@H](N)Cc1ccc(O)cc1)[C@@H](C)O)[C@@H](C)CC)C(=O)N[C@@H](C)C(=O)N[C@@H](CC(C)C)C(=O)N[C@@H](CC(=O)O)C(=O)N[C@@H](CCCCN)C(=O)N[C@@H](CCCCNC(=O)COCCOCCNC(=O)COCCOCCNC(=O)CC[C@H](NC(=O)CCCCCCCCCCCCCCCCCCC(=O)O)C(=O)O)C(=O)N[C@@H](Cc1c[nH]cn1)C(=O)N[C@@H](CCC(N)=O)C(=O)NC(C)(C)C(=O)N[C@@H](CCC(=O)O)C(=O)N[C@@H](Cc1ccccc1)C(=O)N[C@H](C(=O)N[C@@H](CC(N)=O)C(=O)N[C@@H](Cc1ccc(O)cc1)C(=O)N[C@@H](CC(C)C)C(=O)N[C@@H](CC(C)C)C(=O)N[C@@H](C)C(=O)N[C@H](C(=O)NCC(=O)N1CCC[C@H]1C(=O)N[C@@H](CO)C(=O)N[C@@H](CO)C(=O)NCC(=O)N[C@@H](C)C(=O)N1CCC[C@H]1C(=O)N1CCC[C@H]1C(=O)N1CCC[C@H]1C(=O)N[C@@H](CO)C(N)=O)[C@@H](C)O)C(C)C` [Example 35] (H-Y[Aib]EGT[αMeL]ISDYSIALDKK([AEEA-AEEA-γGlu-C20 diacid])HQ[Aib]EFVNYLLATGPSSGAPPPS-NH2), the EC50 was > 5000 nM in assay [1], > 5000 nM in assay [2] and 0.0125 nM in assay [3].

`CC[C@H](C)[C@H](NC(=O)[C@H](CO)NC(=O)[C@H](Cc1ccc(O)cc1)NC(=O)[C@H](CC(=O)O)NC(=O)[C@H](CO)NC(=O)[C@@H](NC(=O)[C@](C)(Cc1ccccc1)NC(=O)[C@@H](NC(=O)CNC(=O)[C@H](CCC(=O)O)NC(=O)C(C)(C)NC(=O)[C@@H](N)Cc1ccc(O)cc1)[C@@H](C)O)[C@@H](C)CC)C(=O)N[C@@](C)(CC(C)C)C(=O)N[C@@H](CC(C)C)C(=O)N[C@@H](CC(=O)O)C(=O)N[C@@H](CCCCN)C(=O)N[C@@H](CCCCNC(=O)COCCOCCNC(=O)COCCOCCNC(=O)CC[C@H](NC(=O)CCCCCCCCCCCCCCCCCCC(=O)O)C(=O)O)C(=O)N[C@@H](Cc1c[nH]cn1)C(=O)N[C@@H](CCC(N)=O)C(=O)NC(C)(C)C(=O)N[C@@H](CCC(=O)O)C(=O)N[C@@H](Cc1ccccc1)C(=O)N[C@H](C(=O)N[C@@H](CCC(=O)O)C(=O)N[C@@H](Cc1ccncc1)C(=O)N[C@@H](CC(C)C)C(=O)N[C@@H](CC(C)C)C(=O)N[C@@H](C)C(=O)N[C@H](C(=O)NCC(=O)N1CCC[C@H]1C(=O)N[C@@H](CO)C(=O)N[C@@H](CO)C(=O)NCC(=O)N[C@@H](C)C(=O)N1CCC[C@H]1C(=O)N1CCC[C@H]1C(=O)N1CCC[C@H]1C(=O)N[C@@H](CO)C(N)=O)[C@@H](C)O)C(C)C` [Example 61] (H-Y[Aib]EGT[αMeF]ISDYSI[αMeL]LDKK([AEEA-AEEA-γGlu-C20 diacid])HQ[Aib]EFVE[4Pal]LLATGPSSGAPPPS-NH2): the values for the EC50 in assay [1], in assay [2] and in assay [3] were 192 nM, > 5000 nM and 0.0167 nM, respectively.

With `CC[C@H](C)[C@H](NC(=O)[C@H](Cc1ccccc1)NC(=O)[C@@H](NC(=O)CNC(=O)[C@H](CCC(=O)O)NC(=O)C(C)(C)NC(=O)[C@@H](N)Cc1ccc(O)cc1)[C@@H](C)O)C(=O)N[C@@H](CO)C(=O)N[C@@H](CC(=O)O)C(=O)N[C@@H](Cc1ccc(O)cc1)C(=O)N[C@@H](CO)C(=O)N[C@H](C(=O)N[C@@](C)(CC(C)C)C(=O)N[C@@H](CC(C)C)C(=O)N[C@@H](CC(=O)O)C(=O)N[C@@H](CCCCN)C(=O)N[C@@H](CCCCNC(=O)COCCOCCNC(=O)COCCOCCNC(=O)CC[C@H](NC(=O)CCCCCCCCCCCCCCCCCCC(=O)O)C(=O)O)C(=O)N[C@@H](Cc1c[nH]cn1)C(=O)N[C@@H](CCC(N)=O)C(=O)NC(C)(C)C(=O)N[C@@H](CC(=O)O)C(=O)N[C@@H](Cc1ccccc1)C(=O)N[C@H](C(=O)N[C@@H](CCC(=O)O)C(=O)N[C@@H](Cc1c[nH]c2ccccc12)C(=O)N[C@@H](CC(C)C)C(=O)N[C@@H](CC(C)C)C(=O)N[C@@H](CCC(=O)O)C(=O)N[C@H](C(=O)NCC(=O)N1CCC[C@H]1C(=O)N[C@@H](CO)C(=O)N[C@@H](CO)C(=O)NCC(=O)N[C@@H](C)C(=O)N1CCC[C@H]1C(=O)N1CCC[C@H]1C(=O)N1CCC[C@H]1C(=O)N[C@@H](CO)C(N)=O)[C@@H](C)O)C(C)C)[C@@H](C)CC` [Example 71] (H-Y[Aib]EGTFISDYSI[αMeL]LDKK([AEEA-AEEA-γGlu-C20 diacid])HQ[Aib]DFVEWLLETGPSSGAPPPS-NH2), the EC50 in assay [1] was > 5000 nM; in assay [2], 581 nM; in assay [3], 0.0721 nM.
